This note sets out measurements from a melting point compilation (Tetko et al.; mined from patent text by program, amines drawn as free bases though some values may be those of a salt).

A word on the melting point: it is the temperature of the solid-liquid transition.

Structures are written as SMILES. Bounds are passed on as bounds.

`COC(=O)C(O)C1OC(n2cnc3c(N)ncnc32)C(O)C1O` (configuration not stated) returned a melting point of 215 to 217 °C.

In the case of `N#CNC(=S)Nc1ccc(F)cc1`, the melting point is > 270 °C.

Molecule `O=C(C(=O)N1C(=O)CC[C@H]1C(=O)O)c1ccccc1` came in with a melting point of 151 to 152 °C.

With `Cc1c(-c2ccncc2)oc2c1C(=O)OC(C)C2` (configuration not stated), the melting point fell in the range of 157 to 160 °C.

`CCC(Cc1ccccc1)(C(=O)c1ccc(N(C)C)cc1)N(C)C` (configuration not stated) gave a melting point of 77 to 80 °C.

For the molecule `COc1ccc(N2CCN(c3c(C)c(C)c4c(c3C)C(N3CCCc5ccccc53)C(C)(C)O4)CC2)cc1` (configuration not stated), the melting point is 188 to 190 °C.

`CNc1nnc(C(C)(C)C)c(=O)n1NC` showed a melting point of 170 to 171 °C.

Take `CCCCSc1nsnc1OC1CCNC1` (configuration not stated): the melting point fell in the range of 99 to 100 °C.

The molecule `CCCCCCCCCCCCS(=O)(=O)CCOc1ccc(C/C=C(\OC(C)=O)C(F)(F)F)cc1` returned a melting point of 48 to 49 °C.

Turning to `O=C(NC(Cc1ccccc1)C1CC(Cc2ccccc2)=NO1)c1ccccc1` (configuration not stated), the melting point lay within 141 to 142 °C.

As for `CCCCC(O)c1cccc(NC(=O)OCc2ccccc2)c1` (configuration not stated), the melting point was 83 to 86 °C.

For `COc1cc(N2CCN(C(=O)c3ccc(Nc4ccnc5cc(C(F)(F)F)ccc45)cc3)CC2)nc(OC)n1`, the melting point was in the range of 260 to 262 °C.

For the molecule `CC(=NN(c1ccccc1)c1ccccc1)c1ccccn1`, the melting point came out at 84 °C.

Consider `CCOC(=O)CCc1ccc(OC)c(OCc2ccccc2)c1`, for which the melting point lay within 49.5 to 50.5 °C.

In turn, `O=C1CCCc2snc(Cl)c21` gave a melting point of 84 to 85 °C.

Molecule `Cc1cccc(N2C(=S)SCC2(O)CC(C)C)n1` (configuration not stated) returned a melting point of 95 °C.

Regarding `CNC(=O)C1(CCCCCCCCO)CC2=C(C1)C(=O)C(OC)=C(OC)C2=O`, the melting point lay in the range of 120 to 123 °C.

`Cc1c(C#N)c(-c2ccc(C#N)cc2)c(C)n1Cc1cnc(Cl)c(C(O)C(F)(F)F)c1` (configuration not stated) displayed a melting point of 200 to 201 °C.

Take `CCc1oc2ccc(C(C)C(=O)O)cc2c(=O)c1C` (configuration not stated): the melting point lay in the range of 196 to 198 °C.

For the molecule `NC(Cc1ccc(O)cc1)CN1CCN(c2ccccc2)CC1` (configuration not stated), the melting point is > 270 °C.

`COc1cc(C(OC(C)=O)C(COC(C)=O)[N+](=O)[O-])ccc1OC(C)=O` (configuration not stated): the melting point was 97 to 100 °C.

`c1ccc(C2c3ccccc3-c3ncncc32)cc1` (configuration not stated): the melting point fell in the range of 148 to 150 °C.

Molecule `CO[Si]1(OC)CCCNCCN1` came in with a melting point of 61 to 62 °C.

In turn, `CCOC(=O)C(C)(NC(=O)Cc1ccc2ccccc2c1)C(=O)OCC` registered a melting point of 148 to 150 °C.

For the molecule `O=C(Nc1cccc2c1C(=O)c1c-2n[nH]c1-c1ccc(C(=O)N2CCC[C@H]2CNc2ccccc2)s1)NN1CCOCC1`, the melting point was > 300 °C.

Take `C=C1SC(=S)N(c2cccc3c(-c4ccc(OC)c(C56CC7CC(CC(C7)C5)C6)c4)cccc23)C1=O`: the melting point lay in the range of 322 to 324 °C.

For the molecule `CC1Oc2ccc(CCl)cc2NC1=O` (configuration not stated), the melting point was 162 to 169 °C.

As to `CCCc1nc2c(N)nc3ccccc3c2n1CCCCS(C)(=O)=O`, the melting point fell in the range of 202 to 204 °C.

As to `NCC(=O)NCc1cccnc1`, the melting point lay within 87 to 88 °C.

Molecule `CCOC(=O)Cc1ccc(CNC(=O)C=Cc2ccc3[nH]cc(CC#N)c3c2)cc1` returned a melting point of 125 to 130 °C.

Molecule `COCCN(C)Cc1ccnc2c(NC(=O)c3c(Cl)cccc3Cl)cccc12` gave a melting point of 128 to 134 °C.

`CCNc1nc(Cl)c(Br)c(NC2CC2)n1` yielded a melting point of 100 to 101 °C.

`CC(O)c1ccc(Cl)c(Cl)c1Cl` (configuration not stated) showed a melting point of 87 to 89 °C.

Regarding `O=C(c1ccc([N+](=O)[O-])cc1)c1ccc2[nH]c(=O)sc2c1`, the melting point fell in the range of 148 to 152 °C.

The molecule `Cc1cccc(Cl)c1OC1CN(C(c2ccccc2)c2ccccc2)C1` registered a melting point of 92 to 93 °C.

Consider `CCn1cc(C(=O)Nc2cc(Oc3ccc4nc(NC(=O)C5CC5)cn4n3)ccc2F)c(C)n1`, for which the melting point amounted to 199 °C.

Turning to `CCOC(=O)/C(=N\OCc1ccccc1)c1csc(N)n1`, the melting point fell in the range of 133 to 134 °C.

Consider `COc1cc(OC)c2c(=O)cc(-c3ccc(O)cc3)oc2c1`, for which the melting point was 301 to 303 °C.

Regarding `Nc1nc2c(ncn2CCC(COC(=O)n2ccnc2)COC(=O)n2ccnc2)c(=O)[nH]1`, the melting point was > 300 °C.

As to `Cn1nc(-c2ccncc2)nc1-c1ccccn1`, the melting point lay within 145 to 146 °C.

Turning to `CCn1cc(C(=O)O)c(=O)c2cc(F)c(N3CCN(S(=O)(=O)c4ccc(N)cc4)CC3)cc21`, the melting point was in the range of 283 to 284 °C.

Regarding `Cc1ccc(C)n1CCNC(=O)COc1ccc(Cl)cc1`, the melting point lay in the range of 75 to 77 °C.

In turn, `C=C1CCn2c(CCc3ccccc3)nc3cccc1c32` showed a melting point of 81 to 82.2 °C.

`CCN1CCNC(=O)c2ccc(Nc3ncc(Cl)c(Nc4ccccc4C(=O)NC)n3)cc21` returned a melting point of 168 to 171 °C.

`Cc1cc(C)c(S(=O)(=O)N2CCCC2c2ccc(F)cc2)c(C)c1` (racemic) yielded a melting point of 111 °C.

Take `C#CCCCC(=O)Nc1nc2nn(C)cc2c2nc(-c3ccco3)nn12`: the melting point lay within 210 to 216 °C.

For the molecule `O=C(CNC1CCCCC1)Nc1ccc(C(=O)N2CCCCc3ccccc32)cc1`, the melting point was in the range of 139 to 142 °C.

As for `O=C(O)C(Oc1ccc(N2CCCCC2)cc1)c1cccc(Cl)c1` (configuration not stated), the melting point fell in the range of 149 to 151 °C.

Molecule `Cc1ccc2cccc(OCc3c(Cl)ccc(C(=O)NCCN4C(=O)c5ccccc5C4=O)c3Cl)c2n1` came in with a melting point of 210 to 212 °C.

Consider `COC(=O)c1c(Sc2ccc(OC)cc2)nc(C(=O)c2ccccc2)n1Cc1cc2c(cc1Cl)OCO2`, for which the melting point was found to be 166 °C.

On to `NC(=O)CC12CCCCC1CCc1ccccc12` (configuration not stated), for which the melting point was 177 °C.

Turning to `CC(C)OC(=O)N1CCC(c2ccc3nc(-c4ccc(S(C)(=O)=O)cc4F)sc3c2)CC1`, the melting point was in the range of 163 to 166 °C.

`O=C(Nc1ccc(N2CCCC2)nc1)c1cc2ccc(C(F)(F)F)nc2n1Cc1cccc(F)c1`: the melting point is 204 to 205 °C.

The molecule `COc1ccc(C2=NNC(N)(C3CCN(Cc4ccccc4)CC3)c3cc(OC)ccc32)cc1` (configuration not stated) gave a melting point of 150 °C.

On to `CCC(=O)C(O)=NNc1cc([N+](=O)[O-])ccc1Br`, for which the melting point is 263 to 265 °C.

Take `CCOC(=O)COc1nc(-c2ccccc2)nc(C)c1C`: the melting point lay within 90 to 91 °C.

The molecule `Cc1cc(-c2ccc(Cl)cc2)nc(-n2cnc(-c3ccc(S(N)(=O)=O)s3)c2)n1` registered a melting point of 281 °C.

Turning to `CC(=O)SCC(Cc1ccccc1)C(=O)Nc1cc(C(=O)OCc2ccccc2)ccc1C` (configuration not stated), the melting point is 134 to 135 °C.

`S=c1nc2ccc(Cl)cn2c(=S)n1-c1ccc(Cl)cn1` gave a melting point of 131 to 132 °C.

`C=CCOC(=O)NS(=O)(=O)CCc1cc(OCCCC)nn1Cc1ccc(Cl)cc1Cl` came in with a melting point of 94 to 95 °C.

For the molecule `CC1C(OC(=O)CCCCCCCCC(=O)OC2C(C)C(c3ccccc3)N(O)C(c3ccccc3)C2C)C(C)C(c2ccccc2)N(O)C1c1ccccc1` (configuration not stated), the melting point is 190 to 191 °C.

For `CSc1nc(C)ccc1NC(=O)CCCCCCCCSc1nc2ccccc2[nH]1`, the melting point fell in the range of 73 to 75 °C.

Take `COc1ncc(-c2cc(C=CC(=O)c3ccc(C(=O)O)cc3)c(OC)cc2OC)c(OC)n1`: the melting point was in the range of 203 to 205 °C.

The molecule `Cn1c(=O)[nH]c(=O)n(-c2cc([N+](=O)[O-])c(F)cc2Cl)c1=O` returned a melting point of 135 to 139 °C.

`CC1(c2cc(-c3nc4ccc(OCc5ccccc5)cc4[nH]3)ccc2OCc2ccccc2)CCCCC1` yielded a melting point of 209 °C.

`COCCN(C1CC(C)(C)Oc2ccc(O)cc21)S(C)(=O)=O` (configuration not stated): the melting point lay within 115 to 117 °C.

`CCOC(=O)CCc1c(C)c(NC(=O)CC(C)(C)C)c(C)c2c1OCC2c1ccc(C(C)C)cc1` (configuration not stated) came in with a melting point of 150 to 151 °C.

Consider `Nc1ccccc1C(=O)NN=Cc1c(O)ccc2ccccc12`, for which the melting point was 188 to 191 °C.

`O=C(O)c1cc[nH]c1Sc1ccc(Cl)cc1Cl` came in with a melting point of 160 to 164 °C.

On to `CCCN1CC(c2ccc(F)cc2)=C(c2ccc(S(N)(=O)=O)cc2)C1=O`, for which the melting point was 180 to 181 °C.

For the molecule `CCOC(=O)Nc1ccccc1N1CC2(CCN(C)CC2)c2ccccc21`, the melting point fell in the range of 99.5 to 101 °C.

In turn, `CCCCCCCCCCCCCCCCCCOc1cc2ccccc2c(N)c1O` yielded a melting point of 97 to 99 °C.

`COc1ccccc1CNc1ccc2cc(Nc3ccccn3)ccc2n1` returned a melting point of 134 °C.

As to `Cc1nc2ccccn2c(=O)c1CCN1CCC2C(C1)c1ccccc1N2Cc1ccccc1` (configuration not stated), the melting point was found to be 145 °C.

Take `CC(C(=O)N(C)C)n1nc(-c2ccccc2)c2c1CCCC2` (configuration not stated): the melting point was in the range of 101 to 103 °C.

Consider `CCC(=O)Nc1nc(-c2ccc(OC(F)F)cc2)cs1`, for which the melting point lay in the range of 186 to 188 °C.

In the case of `CCCCCCCCCCCCCCCCSCC(CN=[N+]=[N-])NC(=O)OC(C)(C)C` (configuration not stated), the melting point fell in the range of 63 to 64 °C.

The molecule `CCOC(=O)c1cnn(-c2ccc(O)c(C#N)c2)c1` showed a melting point of 233 to 234 °C.

`CCCCCCCCCCCCCCOCC(O)CO` (configuration not stated): the melting point fell in the range of 56 to 57 °C.

The molecule `OC(c1ncc[nH]1)(c1ccc(Cl)cc1Cl)c1ccc(Cl)cc1Cl` yielded a melting point of 193 °C.

With `COc1ccnc(CCc2nc3cc(-c4ccc(S(=O)(=O)N(C)C)cc4)cnc3[nH]2)c1`, the melting point lay within 217 to 218 °C.

In the case of `CCC1Oc2ccc(CN3CCN(c4ccncc4)CC3)cc2NC1=O` (configuration not stated), the melting point lay within 113 to 128 °C.

Molecule `Cc1ccc(S(=O)(=O)N(C)c2ccccc(N)c2=O)cc1` came in with a melting point of 221 to 222 °C.

On to `COc1ccc(C(=O)c2oc3cccc(O)c3c2C)cc1`, for which the melting point fell in the range of 192 to 195 °C.

With `C[C@H](NC(=O)Cc1cc(F)cc(F)c1)C(=O)N[C@@H]1C(=O)Nc2ccccc2S[C@@H]1c1cc(Br)cs1`, the melting point was 145 to 155 °C.

The molecule `Cn1cc(C(=O)NCc2ccc(Cl)cc2)c(=O)c2cc(CN3CCOCC3)sc21` gave a melting point of 230 to 236 °C.

For `CN(CCCNC(=O)c1cccc2nc3ccc(Cl)cc3nc12)CCCNC(=O)c1cccc2nc3ccc(Cl)cc3nc12`, the melting point was 210 to 212 °C.
